Values quoted from earlier work in US20190038750A1, “TRIPLE ANTIBIOTIC CATIONIC OINTMENT” (priority 2017, published 2019).

Experiments:
bacteria = conditions: very low concentrations
[1] = in vivo
[2] = test system: Staphylococcus aureus (also the methicillin-resistant type, MRSA)
[3] = test system: Aspergillus brasiliensis (mold)
[4] = test system: vancomycin-resistant enterococci
[5] = test system: Klebsiella pneumoniae (carbapenem-resistant enterobacteriaceae)

Polyaminopropylbiguanide [PAPB]
bactericidal concentration (bacteria): 10 mg/1 | fungicidal (fungus): fungicidal

benzalkonium chloride
burning sensation [1]: does not cause a burning sensation

polyhexamethylenebiguanide [PHMB]
effective against Pseudomonas aeruginosa (Pseudomonas aeruginosa): effective | effective against Staphylococcus aureus (also MRSA) [2]: effective | effective against Escherichia coli (Escherichia coli): effective | effective against Candida albicans (Candida albicans (yeast)): effective | effective against Aspergillus brasiliensis [3]: effective | effective against vancomycin-resistant enterococci [4]: effective | effective against Klebsiella pneumoniae (carbapenem-resistant) [5]: effective
